Measurements taken from patent US20260069571A1, “DDR1 AND DDR2 INHIBITORS FOR THE TREATEMENT OF CANCER AND FIBROTIC DISEASES” (REDX PHARMA PLC, priority 2021, published 2026).

Columns and labels:
Recombinant human DDR2 = Recombinant human DDR2 (Homo sapiens (Human), UniProt Q16832); assay: LanthaScreen Eu Kinase Binding Assay, DDR2; conditions: DDR2 1.75 nM (aa427-855, GST tag), Kinase Tracer 178 10 nM; for IC50: read-out: DDR2 pIC50 (converted)
Protocol: (§1) DDR1 and DDR2 Biochemical Assay Method
(§2) The capacity of compounds to bind to DDR1 and DDR2 was quantified using a LanthaScreen Eu Kinase Binding Assay. Recombinant human DDR1 (2.5 nM; aa440-876 containing a GST tag) and DDR2 (1.75 nM; aa427-855 containing a GST tag) were diluted in assay buffer (50 mM HEPES pH7.3, 10 mM MgCl2, 1 mM EGTA and 0.01% Tween) with various concentrations of compound in a 384-well plate and a volume of 5 uL. After a 30-minute incubation at room temperature, 2.5 uL of Eu-anti GST antibody (diluted to 1 nM in assay buffer) plus Kinase Tracer 178 (diluted in assay buffer to 5 nM for DDR1 and 10 nM for DDR2) were added to the plate. Following 60-minute incubation at room temperature, time-resolved fluorescence was measured on a BMG Labtech PHERAstar plate reader. DMSO (1%) and reference compound (1 μM) were used to generate the Max and Min assay signals, respectively. Data was analysed using a four-parameter logistic model to calculate IC50 values, with at least two independent replicates were performed for each compound.

Recombinant human DDR1 = Recombinant human DDR1 (Homo sapiens (Human), UniProt Q08345); assay: LanthaScreen Eu Kinase Binding Assay, DDR1; conditions: DDR1 2.5 nM (aa440-876, GST tag), Kinase Tracer 178 5 nM; for IC50: read-out: DDR1 pIC50 (converted)
Sequence of Recombinant human DDR1 (Q08345 other isoform, or with tags, fused parts or gaps): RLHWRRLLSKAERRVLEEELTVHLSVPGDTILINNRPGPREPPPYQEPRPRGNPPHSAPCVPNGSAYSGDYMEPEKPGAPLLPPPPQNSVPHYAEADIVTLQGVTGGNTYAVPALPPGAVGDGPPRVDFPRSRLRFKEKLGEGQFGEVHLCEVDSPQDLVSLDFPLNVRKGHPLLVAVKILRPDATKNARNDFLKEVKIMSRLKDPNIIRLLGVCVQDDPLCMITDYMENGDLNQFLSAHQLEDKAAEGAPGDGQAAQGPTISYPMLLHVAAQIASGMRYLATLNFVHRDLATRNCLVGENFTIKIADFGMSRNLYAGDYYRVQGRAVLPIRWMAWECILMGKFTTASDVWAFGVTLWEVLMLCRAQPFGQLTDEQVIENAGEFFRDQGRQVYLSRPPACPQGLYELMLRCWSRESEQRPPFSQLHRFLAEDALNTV
Protocol: as §1, §2

Sequence of Recombinant human DDR2 (Q16832 427-855): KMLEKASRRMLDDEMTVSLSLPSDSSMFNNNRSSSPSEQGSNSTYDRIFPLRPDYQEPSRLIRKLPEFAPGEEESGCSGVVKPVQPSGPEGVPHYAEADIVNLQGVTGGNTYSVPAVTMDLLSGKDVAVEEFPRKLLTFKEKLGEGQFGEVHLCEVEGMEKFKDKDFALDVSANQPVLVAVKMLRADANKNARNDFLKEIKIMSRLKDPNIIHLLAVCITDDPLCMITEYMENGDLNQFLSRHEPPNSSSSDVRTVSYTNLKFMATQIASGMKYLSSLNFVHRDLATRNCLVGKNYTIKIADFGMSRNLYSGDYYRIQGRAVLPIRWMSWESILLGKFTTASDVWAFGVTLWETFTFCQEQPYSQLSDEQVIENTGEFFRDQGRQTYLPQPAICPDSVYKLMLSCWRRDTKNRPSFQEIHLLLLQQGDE

DDR2 pIC50 (Recombinant human DDR2) | DDR1 pIC50 (Recombinant human DDR1) | IC50 (Recombinant human DDR2) | IC50 (Recombinant human DDR1) | SMILES
A (pIC50>8) | A (pIC50>8) | – | – | Cc1n[nH]c2cc(Nc3cccc4c3C(=O)N(CC(=O)N3CCCC(C(F)(F)F)C3)C4)ccc12 (stereo not shown) [Example 32, 7-[(3-methyl-1H-indazol-6-yl)amino]-2-[2-oxo-2-[3-(trifluoromethyl)-1-piperidyl]ethyl]isoindolin-1-one]
A (pIC50>8) | A (pIC50>8) | – | – | Cc1n[nH]c2cc(Nc3cccc4c3C(=O)N(CC(=O)N3CCC[C@H]3CF)C4)ccc12 [Example 33, 2-[2-[(2S)-(fluoromethyl)pyrrolidin-1-yl]-2-oxo-ethyl]-7-[(3-methyl-1H-indazol-6-yl)amino]isoindolin-1-one]
– | – | 10 to 100 nM | 10 to 100 nM | Cc1n[nH]c2cc(Nc3cccc4c3C(=O)N(CC(=O)N3CC(C(F)(F)F)C3)C4)ccc12 [Example 34, 7-[(3-methyl-1H-indazol-6-yl)amino]-2-[2-oxo-2-[3-(trifluoromethyl)azetidin-1-yl]ethyl]isoindolin-1-one]
A (pIC50>8) | A (pIC50>8) | – | – | Cc1n[nH]c2cc(Nc3cccc4c3C(=O)N(CC(=O)NC3CC3(F)F)C4)ccc12 (stereo not shown) [Example 36, N-(2,2-difluorocyclopropyl)-2-[7-[(3-methyl-1H-indazol-6-yl)amino]-1-oxo-isoindolin-2-yl]acetamide]
– | A (pIC50>8) | 10 to 100 nM | – | Cc1n[nH]c2cc(Nc3cccc4c3C(=O)N(CC(=O)Nc3ccc(CN(C)C)c(C(F)(F)F)c3)C4)ccc12 [Example 37, N-[4-[(dimethylamino)methyl]-3-(trifluoromethyl)phenyl]-2-[7-[(3-methyl-1H-indazol-6-yl)amino]-1-oxo-isoindolin-2-yl]acetamide]
– | A (pIC50>8) | 10 to 100 nM | – | Cc1n[nH]c2cc(Nc3cccc4c3C(=O)N(CC(=O)N3CCOC(C(F)(F)F)C3)C4)ccc12 (stereo not shown) [Example 38, 7-[(3-methyl-1H-indazol-6-yl)amino]-2-[2-oxo-2-[2-(trifluoromethyl)morpholin-4-yl]ethyl]isoindolin-1-one]
– | A (pIC50>8) | 10 to 100 nM | – | Cc1n[nH]c2cc(Nc3cccc4c3C(=O)N(CC(=O)Nc3cc(CN(C)C)cc(C(F)(F)F)c3)C4)ccc12 [Example 39, N-[3-[(dimethylamino)methyl]-5-(trifluoromethyl)phenyl]-2-[7-[(3-methyl-1H-indazol-6-yl)amino]-1-oxo-isoindolin-2-yl]acetamide]
A (pIC50>8) | A (pIC50>8) | – | – | Cc1n[nH]c2cc(Nc3cccc4c3C(=O)N(CC(=O)Nc3cnoc3)C4)ccc12 [Example 40, N-isoxazol-4-yl-2-[7-[(3-methyl-1H-indazol-6-yl)amino]-1-oxo-isoindolin-2-yl]acetamide]
A (pIC50>8) | A (pIC50>8) | – | – | Cc1n[nH]c2cc(Nc3cccc4c3C(=O)N(CC(=O)N3CCC[C@H]3C(F)F)C4)ccc12 [Example 41, 7-[(3-methyl-1H-indazol-6-yl)amino]-2-[2-oxo-2-[(2S)-(difluoromethyl)pyrrolidin-1-yl]ethyl]isoindolin-1-one]
– | – | < 10 nM | < 10 nM | Cc1n[nH]c2cc(Nc3cccc4c3C(=O)N(CC(=O)N3CCCC[C@H]3C(F)(F)F)C4)ccc12 [Example 42, 7-[(3-methyl-1H-indazol-6-yl)amino]-2-[2-oxo-2-[(2S)-(trifluoromethyl)-1-piperidyl]ethyl]isoindolin-1-one]
– | A (pIC50>8) | 10 to 100 nM | – | CN(CC(F)(F)F)C(=O)CN1Cc2cccc(Nc3ccc4c(cnn4C)c3)c2C1=O [Example 43, N-methyl-2-[7-[(1-methylindazol-5-yl)amino]-1-oxo-isoindolin-2-yl]-N-(2,2,2-trifluoroethyl)acetamide]
– | – | 100 to 1000 nM | 10 to 100 nM | Cn1ncc2cc(Nc3cccc4c3C(=O)N(CC(=O)N3CCOC[C@H]3C(F)(F)F)C4)ccc21 [Example 44, 7-[(1-methylindazol-5-yl)amino]-2-[2-oxo-2-[(3S)-(trifluoromethyl)morpholin-4-yl]ethyl]isoindolin-1-one]
– | – | 10 to 100 nM | < 10 nM | Cn1ncc2cc(Nc3cccc4c3C(=O)N(CC(=O)N3CCOC[C@@H]3C(F)(F)F)C4)ccc21 [Example 45, 7-[(1-methylindazol-5-yl)amino]-2-[2-oxo-2-[(3R)-(trifluoromethyl)morpholin-4-yl]ethyl]isoindolin-1-one]
A (pIC50>8) | A (pIC50>8) | – | – | Cc1n[nH]c2cc(Nc3cccc4c3C(=O)N(CC(=O)N(C)CC(F)(F)F)C4)ccc12 [Example 46, N-methyl-2-[7-[(3-methyl-1H-indazol-6-yl)amino]-1-oxo-isoindolin-2-yl]-N-(2,2,2-trifluoroethyl)acetamide]
– | A (pIC50>8) | 10 to 100 nM | – | Cc1n[nH]c2cc(Nc3cccc4c3C(=O)N(CC(=O)N3CCO[C@@H](C(F)(F)F)C3)C4)ccc12 [Example 47, 7-[(3-methyl-1H-indazol-6-yl)amino]-2-[2-oxo-2-[(2R)-(trifluoromethyl)morpholin-4-yl]ethyl]isoindolin-1-one]
– | A (pIC50>8) | 10 to 100 nM | – | Cc1n[nH]c2cc(Nc3cccc4c3C(=O)N(CC(=O)N3CCO[C@H](C(F)(F)F)C3)C4)ccc12 [Example 48, 7-[(3-methyl-1H-indazol-6-yl)amino]-2-[2-oxo-2-[(2S)-(trifluoromethyl)morpholin-4-yl]ethyl]isoindolin-1-one]
A (pIC50>8) | A (pIC50>8) | – | – | Cn1ncc2cc(Nc3cccc4c3C(=O)N(CC(=O)NC(C)(C)C(F)(F)F)C4)ccc21 [Example 49, 2-[7-[(1-methylindazol-5-yl)amino]-1-oxo-isoindolin-2-yl]-N-(2,2,2-trifluoro-1,1-dimethyl-ethyl)acetamide]
A (pIC50>8) | A (pIC50>8) | – | – | Cn1ncc2cc(Nc3cccc4c3C(=O)N(CC(=O)N3CCC3C(F)(F)F)C4)ccc21 (stereo not shown) [Example 50, 7-[(1-methylindazol-5-yl)amino]-2-[2-oxo-2-[2-(trifluoromethyl)azetidin-1-yl]ethyl]isoindolin-1-one]
A (pIC50>8) | A (pIC50>8) | – | – | Cn1ncc2cc(Nc3cccc4c3C(=O)N(CC(=O)N3CCC[C@H]3C(F)(F)F)C4)cnc21 [Example 51, 7-[(1-methylpyrazolo[3,4-b]pyridin-5-yl)amino]-2-[2-oxo-2-[(2S)-2-(trifluoromethyl)pyrrolidin-1-yl]ethyl]isoindolin-1-one]
– | – | 100 to 1000 nM | 10 to 100 nM | Cn1ncc2cc(Nc3cccc4c3C(=O)N(CC(=O)NC3CC3(F)F)C4)cnc21 (stereo not shown) [Example 52, N-(2,2-difluorocyclopropyl)-2-[7-[(1-methylpyrazolo[3,4-b]pyridin-5-yl)amino]-1-oxo-isoindolin-2-yl]acetamide]
– | A (pIC50>8) | 10 to 100 nM | – | C[C@H](NC(=O)CN1Cc2cccc(Nc3cnc4c(cnn4C)c3)c2C1=O)C(F)(F)F [Example 53, 2-[7-[(1-methylpyrazolo[3,4-b]pyridin-5-yl)amino]-1-oxo-isoindolin-2-yl]-N-[(1S)-2,2,2-trifluoro-1-methyl-ethyl]acetamide]
– | – | 100 to 1000 nM | 100 to 1000 nM | Cn1ncc2cc(Nc3cccc4c3C(=O)N(CC(=O)N3CCO[C@H](C(F)(F)F)C3)C4)cnc21 [Example 54, 7-[(1-methylpyrazolo[3,4-b]pyridin-5-yl)amino]-2-[2-oxo-2-[(2S)-(trifluoromethyl)morpholin-4-yl]ethyl]isoindolin-1-one]
– | – | 100 to 1000 nM | 100 to 1000 nM | Cn1ncc2cc(Nc3cccc4c3C(=O)N(CC(=O)N3CCO[C@@H](C(F)(F)F)C3)C4)cnc21 [Example 55, 7-[(1-methylpyrazolo[3,4-b]pyridin-5-yl)amino]-2-[2-oxo-2-[(2R)-(trifluoromethyl)morpholin-4-yl]ethyl]isoindolin-1-one]
– | – | 10 to 100 nM | 10 to 100 nM | Cn1ncc2cc(Nc3cccc4c3C(=O)N(CC(=O)N3CCC[C@H]3CF)C4)cnc21 [Example 56, 7-[(1-methylpyrazolo[3,4-b]pyridin-5-yl)amino]-2-[2-oxo-2-[(2S)-(fluoromethyl)pyrrolidin-1-yl]ethyl]isoindolin-1-one]
– | – | ≥ 1000 nM | ≥ 1000 nM | Cn1ncc2cc(Nc3cccc4c3C(=O)N(CC(=O)N3CCOC[C@@H]3C(F)(F)F)C4)cnc21 [Example 57, 7-[(1-methylpyrazolo[3,4-b]pyridin-5-yl)amino]-2-[2-oxo-2-[(3R)-(trifluoromethyl)morpholin-4-yl]ethyl]isoindolin-1-one]
– | A (pIC50>8) | 10 to 100 nM | – | Cn1ncc2cc(Nc3cccc4c3C(=O)N(CC(=O)N3CCC[C@H]3C(F)F)C4)cnc21 [Example 58, 7-[(1-methylpyrazolo[3,4-b]pyridin-5-yl)amino]-2-[2-oxo-2-[(2S)-(difluoromethyl)pyrrolidin-1-yl]ethyl]isoindolin-1-one]
